Measured values: patent US20160067161A1, “COSMETIC OR PHARMACEUTICAL COMPOSITION FOR RESISTING SKIN AGEING THROUGH AN ANTI-INFLAMMATORY ACTION” (GIULIANI S.P.A., priority 2013, published 2016)

Columns and labels:
[1] = tested on: TNF-α; assay: Anti-inflammatory test: TNF-α gene expression by qRT-PCR in LPS-treated NCTC2544 keratinocytes; type: cell-based, human; details: for TNF-α expression: NCTC2544 cells + LPS 5 μg/ml, 16 hours of treatment
Method: An immortalized line of human keratinocytes NCTC2544 is used (Perry, V. P., Sanford, K. K., Evans, V. J., Hyatt, G. W., Earle, W. R., 1957: Establishment of clones of epithelial cells from human skin. J Natl Cancer Inst. 18 (5): 709-717) cultured in sterile flasks ([…]), incubated at 37° C. in a humid atmosphere at 5% CO2 in MEM (Minimum Essential Medium) added with bovine fetal serum (FBS), 2 mm L-glutamine, 1% non-essential amino acids, in the presence of 1% penicillin and streptomycin.
A 1:3 split is done every 2 days upon achieving the monolayer by washing with 1× PBS (phosphate buffer without Ca^2+ and Mg^2+) and detachment of cells with a trypsin-EDTA solution at 37° C. for 2 minutes.
Negative control: human keratinocytes NCTC2544 cultured in EMEM (EBSS) at 2.5% FBS, supplemented with 1% L-glutamine 2 mM, 1% solution of amino acids and 1% mixture of penicillin (10,000 U/ml)/streptomycin (10,000 Ug/ml) at 37° C., 5% CO2. Positive control: human keratinocytes NCTC2544 treated with lipopolysaccharide (LPS, 5 μg/ml) in EMEM (EBSS) at 2.5% FBS, supplemented with 1% L-glutamine 2 mM, 1% solution of amino acids and 1% mixture of penicillin (10,000 U/ml)/streptomycin (10,000 Ug/ml) at 37° C., 5% CO2.
The gene expression of TNF-α on NCTC2544 cells treated with the samples was evaluated by qRT-PCR.
The analysis of gene expression involves four steps:
1. Treatment of cells with the samples for 16 and 24 hours;
3. Retrotranscription in cDNA;
In the experimental conditions, in relation with the results obtained in a previous MTT test, samples of spermidine and N^1-methyl-spermidine were tested at the following concentrations: 1 μM, 500 nM and 1 mM (final concentration in the medium). Said positive and negative controls were also tested.
When the human keratinocyte cells NCTC 2544 have reached about 80% confluence, they are detached with trypsin/EDTA and seeded at a density of 1×10^6 cells/ml in 12-well plates and incubated at 37° C., 5% CO2 (24 h).
The above samples of spermidine and N^1-methyl-spermidine were dissolved in EMEM, supplemented with 2.5% FCS, 1% 2 mM L-glutamine, 1% NEAA solution and 1% penicillin (10,000 U/ml)/streptomycin ([…]).
The controls, containing only culture medium (negative control) and culture medium plus LPS ([…]) (positive control), were included in each plate. The cells were exposed to the action of the samples of spermidine and N^1-methyl-spermidine at the above concentrations of 1 μM, 500 nM and 1 mM: a total of six samples.
LPS at a concentration of 5 μg/ml was added to each well (except in the negative control). Each sample was tested in replicate.
With reference to the graphs in FIGS. 4 and 5, samples of further compounds of the invention as specified below were subjected to anti-inflammatory test on an immortalized line of human keratinocytes NCTC2544 substantially as described above, to the general part whereof reference shall be made.
The controls containing only culture medium (negative control) and culture medium plus LPS (5 μg/ml) (positive control), were included in each plate.
The cells were exposed to the action of samples of the compounds N^1-ethylspermidine, N^1-propylspermidine, N^1-isobutylspermidine at the concentrations of 1 nM and 1 μM.
The gene expression data were obtained by RT-PCR.

[2] = tested on: NCTC 2544 cells; assay: ROS antioxidant test (DCFH-DA spectrofluorometry) on NCTC 2544 cells; type: cell-based, human; details: 500 μM, 1.5 hours (FIG. 3); for decrease in intracellular concentration of ROS produced compared with H2O2 control: test compound at 500 nM, 1 μM, 1 mM, α-tocopherol 250 μg/ml (580 μM)
Text: Samples of a compound of the invention, N^1-methylspermidine trihydrochloride salt, i.e. N-(3-aminopropyl)-N^1-methyl-1,4-butanediamine 3HCl, were subjected to the following antioxidant test to reactive oxygen species (ROS).
The production of ROS was monitored spectrofluorometrically using 2′,7′-dichlorofluorescein diacetate (DCFH-DA), as described by Tobi et al. (Tobi S E, Paul N, T McMillan J. J Photochem Photobiol, B 2000: 57: 102-112).
The NCTC 2544 cells (about 80% confluence) were detached with trypsin/EDTA and seeded at a density of 5×10^4 cells per well in 96-well plates. Subsequently, the cells were treated with samples of N^1-methylspermidine, at the following concentrations: 500 nM, 1 μm and 500 μm, 1 mM (final concentration in the culture medium).
α-tocopherol (250 μg/ml, 580 μm) was used as a comparison of the antioxidant activity.
The plates were incubated at 37° C. in 5% CO2 for 1.5 hours. Cells cultured on basal medium with 2.5% FBS were used as a control.
The results are shown in the graph of FIG. 3, wherein N^1-methylspermidine trichydrochloride salt is for brevity indicated as ‘methylspermidine’.

NCCCCNCCCN [spermidine, reference compound]
TNF-α expression ([1]; 1 nM (FIG. 1)): 13.99%

CN(CCCN)CCCCN.Cl.Cl.Cl [N-(3-aminopropyl)-N^1-methyl-1,4-butanediamine 3HCl]
antioxidant activity compared with α-tocopherol (580 μM) [2]: higher antioxidant activity
decrease in intracellular concentration of ROS produced compared with H2O2 control [2]: decrease substantially comparable

Cc1c(C)c2c(c(C)c1O)CC[C@@](C)(CCC[C@H](C)CCC[C@H](C)CCCC(C)C)O2 [α-tocopherol, reference compound]
decrease in intracellular concentration of ROS produced compared with H2O2 control [2]: decrease substantially comparable

CN(CCCN)CCCCN [N^1-methylspermidine, N-(3-aminopropyl)-N^1-methyl-1,4-butanediamine]
anti-inflammatory effects after 24 hours compared with 16 hours ([1]; 24 hours of treatment (FIG. 2)): remain almost unchanged
anti-inflammatory effect compared with spermidine ([1]; 24 hours of treatment, 500 nM (FIG. 2)): significantly higher anti-inflammatory effect
TNF-α expression ([1]; 1 nM (FIG. 1)): 7.94%
TNF-α expression ([1]; 500 nM (FIG. 1)): 1.52%
anti-inflammatory effect (TNF-α gene expression) ([1]; all concentrations examined, 16 and 24 hours): anti-inflammatory effect
